In PMC9754640, “Z-REX uncovers a bifurcation in function of Keap1 paralogs” (eLife, 2022):

Key:
hKeap1 [1] = target: T1, hKeap1 (Homo sapiens, UniProt Q14145); test: Z-REX in zebrafish embryos, biotin-azide Click, streptavidin pulldown, western blot; settings: covalent; alkyne-labelled compound released from Ht-PreDE (6 uM) in live embryos; also labelled by bolus DE
T1 construct: gene KEAP1; full-length, His6-HaloTag-TEV fusion (2xHA C-terminal in fish); TEV-cleaved after lysis, about 70 kDa; expressed in HEK293T cells or zebrafish embryos

hKeap1 [2] = target: T1, hKeap1; test: T-REX photouncaging in HEK293T, TEV cleavage, Cy5-azide Click in-gel fluorescence; type: cell-based; settings: covalent; alkyne-labelled compound released from Ht-PreHNE bound to HaloTag (25 uM in methods), live cells
zKeap1b [3] = target: T2, zKeap1b (Danio rerio, UniProt A0A2R8Q1W5); test: as above; type: cell-based; settings: covalent; alkyne-labelled compound released from Ht-PreHNE bound to HaloTag (25 uM in methods), live cells
T2 construct: gene keap1b; full-length, myc-HaloTag-TEV-3xFlag N-terminal fusion, TEV-cleaved after lysis; HEK293T expression
T2 sequence (A0A2R8Q1W5 1-593 isoform A0A2R8Q1W5-3): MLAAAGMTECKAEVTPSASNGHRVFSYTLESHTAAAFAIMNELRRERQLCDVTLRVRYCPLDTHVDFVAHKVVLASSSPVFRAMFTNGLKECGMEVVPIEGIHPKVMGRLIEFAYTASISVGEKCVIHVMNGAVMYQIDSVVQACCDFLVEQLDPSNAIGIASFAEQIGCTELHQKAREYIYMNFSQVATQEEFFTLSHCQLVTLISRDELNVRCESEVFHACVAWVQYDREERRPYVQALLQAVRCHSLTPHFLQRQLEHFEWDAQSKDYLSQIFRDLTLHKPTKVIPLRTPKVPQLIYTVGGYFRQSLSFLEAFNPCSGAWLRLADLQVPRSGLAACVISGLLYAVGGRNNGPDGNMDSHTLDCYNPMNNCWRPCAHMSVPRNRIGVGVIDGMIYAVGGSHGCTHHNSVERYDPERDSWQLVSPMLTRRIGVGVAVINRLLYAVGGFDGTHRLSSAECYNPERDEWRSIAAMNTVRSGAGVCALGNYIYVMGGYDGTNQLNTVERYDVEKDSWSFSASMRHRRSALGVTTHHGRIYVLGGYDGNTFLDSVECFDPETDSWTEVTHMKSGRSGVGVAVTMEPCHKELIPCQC

zKeap1a [4] = target: T3, zKeap1a (Danio rerio, UniProt Q1ECZ2); test: as above; type: cell-based; settings: covalent; alkyne-labelled compound released from Ht-PreHNE bound to HaloTag (25 uM in methods), live cells
T3 construct: gene keap1a; full-length, myc-HaloTag-TEV-3xFlag N-terminal fusion, TEV-cleaved after lysis; HEK293T expression
T3 sequence (Q1ECZ2 1-601): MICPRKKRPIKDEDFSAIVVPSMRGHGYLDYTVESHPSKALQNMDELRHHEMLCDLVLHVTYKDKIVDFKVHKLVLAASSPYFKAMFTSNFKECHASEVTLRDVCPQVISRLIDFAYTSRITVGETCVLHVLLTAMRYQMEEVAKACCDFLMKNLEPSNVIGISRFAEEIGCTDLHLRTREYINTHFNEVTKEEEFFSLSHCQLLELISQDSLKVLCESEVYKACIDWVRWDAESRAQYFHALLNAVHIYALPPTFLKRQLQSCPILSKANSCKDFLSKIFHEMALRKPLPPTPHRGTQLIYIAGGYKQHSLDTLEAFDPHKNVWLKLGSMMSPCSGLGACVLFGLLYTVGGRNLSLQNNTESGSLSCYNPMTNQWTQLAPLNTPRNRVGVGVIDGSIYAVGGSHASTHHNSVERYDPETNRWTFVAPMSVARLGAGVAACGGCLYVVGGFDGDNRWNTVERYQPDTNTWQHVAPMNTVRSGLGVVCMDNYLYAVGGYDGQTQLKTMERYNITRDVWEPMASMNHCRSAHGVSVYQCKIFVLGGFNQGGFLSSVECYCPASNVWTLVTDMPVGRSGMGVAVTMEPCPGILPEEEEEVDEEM

hKeap1 [5] = target: T4, hKeap1 (Homo sapiens, UniProt Q14145, C273I); test: as above; type: cell-based; settings: covalent; alkyne-labelled compound released from Ht-PreHNE bound to HaloTag (25 uM in methods), live cells
T4 construct: gene KEAP1; full-length, His6-HaloTag-TEV fusion (2xHA C-terminal in fish); TEV-cleaved after lysis, about 70 kDa; expressed in HEK293T cells or zebrafish embryos

zKeap1b [6] = target: T2, zKeap1b; test: as above; type: cell-based; settings: covalent; alkyne-labelled compound released from Ht-PreNE bound to HaloTag (10 uM in legend, 25 uM in methods), live cells
hKeap1 [7] = target: T4, hKeap1; test: as above; type: cell-based; settings: covalent; alkyne-labelled compound released from Ht-PreNE bound to HaloTag (10 uM in legend, 25 uM in methods), live cells
zKeap1a [8] = target: T3, zKeap1a; test: as above; type: cell-based; settings: covalent; alkyne-labelled compound released from Ht-PreNE bound to HaloTag (10 uM in legend, 25 uM in methods), live cells
hKeap1 [9] = target: T1, hKeap1; test: as above; type: cell-based; settings: covalent; alkyne-labelled compound released from Ht-PreNE bound to HaloTag (10 uM in legend, 25 uM in methods), live cells

T1 sequence (Q14145 whole entry, the tested form may be a part): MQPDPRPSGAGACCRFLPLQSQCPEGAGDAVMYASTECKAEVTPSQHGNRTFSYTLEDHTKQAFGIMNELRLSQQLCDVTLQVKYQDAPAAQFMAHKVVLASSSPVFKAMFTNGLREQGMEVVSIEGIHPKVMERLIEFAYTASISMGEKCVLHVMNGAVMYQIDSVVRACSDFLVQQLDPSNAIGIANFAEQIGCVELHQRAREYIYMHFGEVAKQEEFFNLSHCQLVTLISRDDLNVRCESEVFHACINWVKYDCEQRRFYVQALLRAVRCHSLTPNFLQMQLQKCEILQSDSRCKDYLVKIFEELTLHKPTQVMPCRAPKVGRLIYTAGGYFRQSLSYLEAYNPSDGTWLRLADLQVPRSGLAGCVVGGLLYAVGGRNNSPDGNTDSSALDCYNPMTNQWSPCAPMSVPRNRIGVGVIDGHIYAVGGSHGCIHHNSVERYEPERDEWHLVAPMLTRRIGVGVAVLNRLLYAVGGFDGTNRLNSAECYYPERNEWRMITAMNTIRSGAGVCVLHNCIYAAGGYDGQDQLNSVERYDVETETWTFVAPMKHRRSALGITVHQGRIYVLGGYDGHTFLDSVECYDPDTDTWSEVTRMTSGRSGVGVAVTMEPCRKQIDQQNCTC
T4 sequence (Q14145 whole entry C273I, the tested form may be a part): as the sequence (Q14145 whole entry, the tested form may be a part) above, with C273I counted along it

C#CCCCC/C=C/C(C)=O [DE]
Z-REX in zebrafish embryos, biotin-azide Click, streptavidin pulldown, western b (hKeap1 [1]): using DE as an example that hKeap1-labeling extent was similar to that achieved with HNE

C#CCCCC(O)/C=C/C=O (stereo not drawn) [HNE]
T-REX photouncaging in HEK293T, TEV cleavage, Cy5-azide Click in-gel fluorescenc (hKeap1 [2]): all four proteins sensed HNE equally well | T-REX photouncaging in HEK293T, TEV cleavage, Cy5-azide Click in-gel fluorescenc (zKeap1b [3]): all four proteins sensed HNE equally well | T-REX photouncaging in HEK293T, TEV cleavage, Cy5-azide Click in-gel fluorescenc (zKeap1a [4]): all four proteins sensed HNE equally well | T-REX photouncaging in HEK293T, TEV cleavage, Cy5-azide Click in-gel fluorescenc (hKeap1 [5]): all four proteins sensed HNE equally well

C#CCCCC/C=C/C=O [NE]
targeting efficiency (zKeap1b [6]): zKeap1a/b, both of which sensed NE to the same extent | targeting efficiency (hKeap1 [7]): hKeap1 and hKeap1(C273I) sensed NE marginally better than zKeap1a/b | targeting efficiency (zKeap1a [8]): zKeap1a/b, both of which sensed NE to the same extent | targeting efficiency (hKeap1 [9]): hKeap1 and hKeap1(C273I) sensed NE marginally better than zKeap1a/b
